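In this assay, cells in 96-well plates receive the compound at five concentrations for 48 hours. Endpoints are linearly interpolated between the surrounding concentrations. GI50 is the concentration that inhibits growth by half.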 The source made the active and inactive calls. Cut-off read from the data, not from the text of the source: active = GI50 up to about 1.1 µM and inactive = higher.
Experiments:
Test in all cases: growth of human tumour cells (NCI), 48 h
ACHN = system: ACHN
NCI-H226 = system: NCI-H226
MOLT-4 = system: MOLT-4
A549 = system: A549
SF-539 = system: SF-539
OVCAR-4 = system: OVCAR-4
SW-620 = system: SW-620
UACC-62 = system: UACC-62
BT-549 = system: BT-549
SF-268 = system: SF-268
DU-145 = system: DU-145
EKVX = system: EKVX
K562 = system: K562
T47D = system: T47D
SK-OV-3 = system: SK-OV-3
OVCAR-5 = system: OVCAR-5
MDA-MB-435 = system: MDA-MB-435
RXF 393 = system: RXF 393
HCT-116 = system: HCT-116
HCT-15 = system: HCT-15
KM12 = system: KM12
SK-MEL-2 = system: SK-MEL-2
SN12C = system: SN12C
SNB-75 = system: SNB-75
CCRF-CEM = system: CCRF-CEM
HT-29 = system: HT-29
OVCAR-8 = system: OVCAR-8
Malme-3M = system: Malme-3M
NCI/ADR-RES = system: NCI/ADR-RES
MDA-N = system: MDA-N
CAKI-1 = system: CAKI-1
786-0 = system: 786-0
SK-MEL-28 = system: SK-MEL-28
NCI-H522 = system: NCI-H522
HOP-62 = system: HOP-62
Hs-578T = system: Hs-578T
IGROV-1 = system: IGROV-1
SNB-19 = system: SNB-19
NCI-H23 = system: NCI-H23
UO-31 = system: UO-31
UACC-257 = system: UACC-257
OVCAR-3 = system: OVCAR-3
SR = system: SR
HOP-92 = system: HOP-92
M14 = system: M14
HCC 2998 = system: HCC 2998
MDA-MB-231 = system: MDA-MB-231
SF-295 = system: SF-295
LOX IMVI = system: LOX IMVI
NCI-H460 = system: NCI-H460
PC-3 = system: PC-3
SK-MEL-5 = system: SK-MEL-5
U-251 = system: U-251
TK-10 = system: TK-10
A498 = system: A498
COLO 205 = system: COLO 205
MCF7 = system: MCF7
RPMI-8226 = system: RPMI-8226

Structure (SMILES): C[C@H](N)C(=O)Nc1ccc(-c2nc3ccccc3s2)cc1
- GI50 (ACHN): 17.4 µM (inactive)
- GI50 (NCI-H226): 26.8 µM (inactive)
- GI50 (MOLT-4): 16.3 µM (inactive)
- GI50 (A549): 15.6 µM (inactive)
- GI50 (SF-539): 36.9 µM (inactive)
- GI50 (OVCAR-4): 16.4 µM (inactive)
- GI50 (SW-620): 17.2 µM (inactive)
- GI50 (UACC-62): 18.5 µM (inactive)
- GI50 (BT-549): > 100 µM (inactive)
- GI50 (SF-268): 41.3 µM (inactive)
- GI50 (DU-145): 18.4 µM (inactive)
- GI50 (EKVX): 11.8 µM (inactive)
- GI50 (K562): 21.5 µM (inactive)
- GI50 (T47D): 17.5 µM (inactive)
- GI50 (SK-OV-3): 22.5 µM (inactive)
- GI50 (OVCAR-5): 18.7 µM (inactive)
- GI50 (MDA-MB-435): 16.9 µM (inactive)
- GI50 (RXF 393): 29.3 µM (inactive)
- GI50 (HCT-116): 15.2 µM (inactive)
- GI50 (HCT-15): 17.7 µM
- GI50 (KM12): 16.3 µM (inactive)
- GI50 (SK-MEL-2): 28.6 µM (inactive)
- GI50 (SN12C): 24.8 µM (inactive)
- GI50 (SNB-75): 18 µM (inactive)
- GI50 (CCRF-CEM): 10.2 µM (inactive)
- GI50 (HT-29): 20.9 µM (inactive)
- GI50 (OVCAR-8): 25.6 µM (inactive)
- GI50 (Malme-3M): 19.1 µM (inactive)
- GI50 (NCI/ADR-RES): 28.6 µM (inactive)
- GI50 (MDA-N): 18.7 µM (inactive)
- GI50 (CAKI-1): 17.1 µM (inactive)
- GI50 (786-0): 15.7 µM (inactive)
- GI50 (SK-MEL-28): 18.5 µM (inactive)
- GI50 (NCI-H522): 18.5 µM (inactive)
- GI50 (HOP-62): 26.5 µM (inactive)
- GI50 (Hs-578T): 37.8 µM (inactive)
- GI50 (IGROV-1): 15.2 µM (inactive)
- GI50 (SNB-19): 22.4 µM (inactive)
- GI50 (NCI-H23): 32.2 µM (inactive)
- GI50 (UO-31): 12.3 µM (inactive)
- GI50 (UACC-257): 39.1 µM (inactive)
- GI50 (OVCAR-3): 18.3 µM (inactive)
- GI50 (SR): 15.1 µM (inactive)
- GI50 (HOP-92): 26.4 µM (inactive)
- GI50 (M14): 10.9 µM (inactive)
- GI50 (HCC 2998): 20.9 µM (inactive)
- GI50 (MDA-MB-231): 18.4 µM (inactive)
- GI50 (SF-295): 18.7 µM (inactive)
- GI50 (LOX IMVI): 19.1 µM (inactive)
- GI50 (NCI-H460): 16.9 µM (inactive)
- GI50 (PC-3): 20.2 µM (inactive)
- GI50 (SK-MEL-5): 20.1 µM (inactive)
- GI50 (U-251): 16.9 µM (inactive)
- GI50 (TK-10): 24.5 µM (inactive)
- GI50 (A498): 30.1 µM (inactive)
- GI50 (COLO 205): 18.6 µM (inactive)

Structure (SMILES): Clc1ccc(OCc2nnc(CCCCCCCCc3nnc(COc4ccc(Cl)cc4Cl)n3Nc3ccccc3)n2Nc2ccccc2)c(Cl)c1
- GI50 (ACHN): 2.44 µM (inactive)
- GI50 (NCI-H226): 9.51 µM (inactive)
- GI50 (MOLT-4): 22.7 µM (inactive)
- GI50 (A549): 8.77 µM (inactive)
- GI50 (SF-539): 11.4 µM (inactive)
- GI50 (OVCAR-4): 8.51 µM (inactive)
- GI50 (SW-620): 12.7 µM (inactive)
- GI50 (UACC-62): 1.47 µM (inactive)
- GI50 (BT-549): 17.9 µM (inactive)
- GI50 (SF-268): 14.2 µM (inactive)
- GI50 (DU-145): 18.6 µM (inactive)
- GI50 (EKVX): 19 µM (inactive)
- GI50 (T47D): 6.53 µM (inactive)
- GI50 (SK-OV-3): 11.5 µM (inactive)
- GI50 (OVCAR-5): 9.23 µM (inactive)
- GI50 (MDA-MB-435): 5.97 µM (inactive)
- GI50 (RXF 393): 16.3 µM (inactive)
- GI50 (HCT-116): 11.4 µM (inactive)
- GI50 (HCT-15): 10.9 µM
- GI50 (KM12): 10.7 µM (inactive)
- GI50 (SK-MEL-2): 8.04 µM (inactive)
- GI50 (SN12C): 18.4 µM (inactive)
- GI50 (SNB-75): 23 µM (inactive)
- GI50 (HT-29): 13.8 µM (inactive)
- GI50 (OVCAR-8): 17.4 µM (inactive)
- GI50 (Malme-3M): 19.5 µM (inactive)
- GI50 (NCI/ADR-RES): 11.9 µM (inactive)
- GI50 (MCF7): 7.06 µM (inactive)
- GI50 (MDA-N): 9.93 µM (inactive)
- GI50 (CAKI-1): 8.73 µM (inactive)
- GI50 (786-0): 15.2 µM (inactive)
- GI50 (SK-MEL-28): 5.46 µM (inactive)
- GI50 (NCI-H522): 8.75 µM (inactive)
- GI50 (HOP-62): 3.02 µM (inactive)
- GI50 (Hs-578T): 15.8 µM (inactive)
- GI50 (RPMI-8226): 2.34 µM (inactive)
- GI50 (IGROV-1): 13 µM (inactive)
- GI50 (SNB-19): 17.7 µM (inactive)
- GI50 (NCI-H23): 15.1 µM (inactive)
- GI50 (UO-31): 11.8 µM (inactive)
- GI50 (UACC-257): 10.8 µM (inactive)
- GI50 (OVCAR-3): 12 µM (inactive)
- GI50 (HOP-92): 17.4 µM (inactive)
- GI50 (M14): 11.3 µM (inactive)
- GI50 (HCC 2998): 7.21 µM (inactive)
- GI50 (MDA-MB-231): 8.41 µM (inactive)
- GI50 (SF-295): 1.38 µM (inactive)
- GI50 (LOX IMVI): 19 µM (inactive)
- GI50 (NCI-H460): 4.15 µM (inactive)
- GI50 (PC-3): 3.07 µM (inactive)
- GI50 (SK-MEL-5): 2.23 µM (inactive)
- GI50 (U-251): 13.1 µM (inactive)
- GI50 (TK-10): 16.8 µM (inactive)
- GI50 (A498): 21.4 µM (inactive)
- GI50 (COLO 205): 1.5 µM (inactive)

— ChEMBL document CHEMBL1201862, “PubChem BioAssay data set” (2004)
